According to ChEMBL document CHEMBL5143724, “Small Molecules Promote Selective Denaturation and Degradation of Tubulin Heterodimers through a Low-Barrier Hydrogen Bond” (J Med Chem, 2022):
The source made the active and inactive calls. The rule behind the calls is not given here.

Columns and labels:
[1] = molecular target: Tubulin beta (Homo sapiens) (UniProt P68371+Q9H4B7+Q13509+P04350+Q3ZCM7+P07437+Q13885+Q9BVA1+Q9BUF5+A6NNZ2); assay: Induction of Beta tubulin degradation in human HeLa cells at 0.001 to 100 uM incubated for 16 hrs by immunoblotting analysis; assay type: cell-based; details: dose 0.001-100 µM
HeLa = assay: Antiproliferative activity against human HeLa cells assessed as cell viability at 0.001 to 100 uM incubated for 48 hrs by MTT assay; assay type: functional, cell-based; details: dose 0.001-100 µM

Compound	Activity [1]	Activity (HeLa)
c1ccc(Oc2cccc(CNc3ccccn3)c2)cc1	Active	Active
c1ccc(Oc2cccc(CNc3cc4ccccc4cn3)c2)cc1	Active	Active
CCCCNc1cc2c(cn1)[nH]c1ccccc12	Active	Active
c1ccc2c(c1)[nH]c1cnc(NCC3CCCCC3)cc12	Active	Active
